Data from patent publication US20110076240A1, “Antifungal and Anti-Cariogenic Cellobio-Oligosaccharides Produced by Dextransucrase” (priority 2008, published 2011).

Tested on: mutansucrase
Test: Inhibition of water insoluble glucan synthesis (absorbance at 550 nm; adherence to glass vials)
Assay type: biochemical, Streptococcus mutans and S. sorbrinus
Settings: 50 mM test substance, 1 M sucrose, 37° C., 48 h
Method: Isolation of Oral Bacteria and Production of Mutansucrase: Oral bacteria were collected by a cotton swab from human teeth and streaked onto a brain heart infusion (BHI) agar containing 4% sucrose. The culture was grown at 37° C. until visible colonies of Streptococcus mutans and S. sorbrinus appeared. The colonies were grown in 1 L BHI at 37° C. with shaking at 150 rpm for 24-36 h to induce production of mutansucrase secreted outside the cell membrane. After incubation, the culture was harvested by centrifugation, and the supernatant with the mutansucrase was concentrated to 100 ml using a 30 K cut-off membrane filter. One unit of mutansucrase in the concentrated supernatant was defined as the amount of enzyme that catalyzes the formation of 1 μmol of fructose per minute at 37° C., pH 7.0, from 100 mM sucrose.
These cultures were grown in glass vials at 37° C. for 48 h.
The supernatants of individual reaction mixtures were discarded such that the insoluble glucans remained in the vial. To compare the amount of insoluble glucans produced, the synthesized glucans on the glass were washed with a HEPES buffer and dissolved in 0.5 N NaOH. The resulting wash was used to measure the soluble glucans. The absorbance of water insoluble glucans was measured at 550 nm. For visualization, synthesized glucans were dyed with a drop of dental disclosing solution.

O=C[C@H](O)[C@@H](O)[C@H](O[C@@H]1O[C@H](CO)[C@@H](O)[C@H](O)[C@H]1O)[C@H](O)CO [cellobiose]
insoluble glucans produced compared to the control mixture: did not affect
